Experimental data reported in patent US5059624A, “Guanidine derivatives having hypotensive activity, composition containing them and process for obtaining them” (Consiglio Nazionale Delle Ricerche, priority 1988, dated 1991).
Read-outs that look alike come from different tables or passages of the source.

System: male Wistar rats
Conditions: for cardiovascular and respiratory effects (in words): i.v.
[1] = doses higher than 50-800 μg/kg i.v., rat

Procedure: In order to check its activity, diguanido-II was dissolved in a 0.9 % sodium chloride solution and administered through "rapid" i.v. route in male Wistar rats, under general anaesthesia obtained by means of 10% ethyl urethan (i ml/hg).
The active ingredients called guanido-III, -IV, -V, as well as agmatine and galegine, were also tested, after having been administered through "rapid" i.v. route in male Wistar rats (weighing average 280±5 g) under general anaesthesia obtained by means of 10% ethyl uretan (1 ml/hg, i.p.). The general experimental conditions were exactly the same as previously mentioned for guanido-I and diguanido-II, so that the cardiovascular and respiratory effects could be compared.
The parameters measured are as follows: systolic and diastolic systemic arterial pressure (AP), heart rate (HR), maximum rate of increase in the left ventricular isovolumetric pressure (dp/dt), respiratory frequency (RF) and tidal volume (TV). The doses (in μg/kg body weight, referred to the active substance) varied from 50 μg/kg to 6,400 μg/kg (ratio=2.0); in some cases higher does have been employed.

NCCCCN=C(N)N [agmatine, 4-(aminobutyl)guanidine, reference compound]
Δ AP DIAST (200 μg/kg i.v.): -4 ± 1 mmHg | Δ AP SYST (200 μg/kg i.v.): -5 ± 2 mmHg | Δ HR (200 μg/kg i.v.): 0 beats/min | Δ RF (200 μg/kg i.v.): +9 ± 3% | Δ TV (200 μg/kg i.v.): +3 ± 1% | Δ dp/dt (200 μg/kg i.v.): +300 ± 89 mmHg/sec | Δ AP DIAST (400 μg/kg i.v.): -6 ± 2 mmHg | Δ AP SYST (400 μg/kg i.v.): -6 ± 1 mmHg | Δ HR (400 μg/kg i.v.): 0 beats/min | Δ RF (400 μg/kg i.v.): +11 ± 4% | Δ TV (400 μg/kg i.v.): +12 ± 4% | Δ dp/dt (400 μg/kg i.v.): +334 ± 54 mmHg/sec | Δ AP DIAST (800 μg/kg i.v.): -8 ± 2 mmHg | Δ AP SYST (800 μg/kg i.v.): -8 ± 2 mmHg | Δ HR (800 μg/kg i.v.): 0 beats/min | Δ RF (800 μg/kg i.v.): +12 ± 4% | Δ TV (800 μg/kg i.v.): +14 ± 2% | Δ dp/dt (800 μg/kg i.v.): +947 ± 131 mmHg/sec | Δ AP DIAST (1600 μg/kg i.v.): -10 ± 1 mmHg | Δ AP SYST (1600 μg/kg i.v.): -9 ± 3 mmHg | Δ HR (1600 μg/kg i.v.): 0 beats/min | Δ RF (1600 μg/kg i.v.): +11 ± 2% | Δ TV (1600 μg/kg i.v.): +25 ± 5% | Δ dp/dt (1600 μg/kg i.v.): +981 ± 94 mmHg/sec | Δ AP DIAST (3200 μg/kg i.v.): -11 ± 2 mmHg | Δ AP SYST (3200 μg/kg i.v.): -9 ± 2 mmHg | Δ HR (3200 μg/kg i.v.): -7 ± 2 beats/min | Δ RF (3200 μg/kg i.v.): +13 ± 4% | Δ TV (3200 μg/kg i.v.): +27 ± 4% | Δ dp/dt (3200 μg/kg i.v.): +1356 ± 164 mmHg/sec | Δ AP DIAST (6400 μg/kg i.v.): -13 ± 4 mmHg | Δ AP SYST (6400 μg/kg i.v.): -11 ± 4 mmHg | Δ HR (6400 μg/kg i.v.): -13 ± 5 beats/min | Δ RF (6400 μg/kg i.v.): +13 ± 5% | Δ TV (6400 μg/kg i.v.): +30 ± 7% | Δ dp/dt (6400 μg/kg i.v.): +3351 ± 417 mmHg/sec | Δ AP DIAST (12800 μg/kg i.v.): -18 ± 5 mmHg | Δ AP SYST (12800 μg/kg i.v.): -12 ± 2 mmHg | Δ HR (12800 μg/kg i.v.): -17 ± 2 beats/min | Δ RF (12800 μg/kg i.v.): +15 ± 2% | Δ TV (12800 μg/kg i.v.): +31 ± 7% | Δ dp/dt (12800 μg/kg i.v.): +2568 ± 432 mmHg/sec | Δ AP DIAST (25600 μg/kg i.v.): -23 ± 4 mmHg | Δ AP SYST (25600 μg/kg i.v.): -12 ± 3 mmHg | Δ HR (25600 μg/kg i.v.): -17 ± 7 beats/min | Δ RF (25600 μg/kg i.v.): +24 ± 4% | Δ TV (25600 μg/kg i.v.): +33 ± 9% | Δ dp/dt (25600 μg/kg i.v.): +3565 ± 813 mmHg/sec | Δ AP DIAST (51200 μg/kg i.v.): -34 ± 6 mmHg | Δ AP SYST (51200 μg/kg i.v.): -15 ± 1 mmHg | Δ HR (51200 μg/kg i.v.): -22 ± 1 beats/min | Δ RF (51200 μg/kg i.v.): +31 ± 7% | Δ TV (51200 μg/kg i.v.): +35 ± 6% | Δ dp/dt (51200 μg/kg i.v.): +5491 ± 869 mmHg/sec | cardiovascular and respiratory effects (in words) (rat): analogous to those induced by guanido-V., moreover, said active ingredient caused a constant increase in dp/dt, RF and TV

CC(C)=CCN=C(N)N [galegine, prenylguanidine, reference compound]
Δ AP DIAST (50 μg/kg i.v.): -19 ± 3 mmHg | Δ AP SYST (50 μg/kg i.v.): -18 ± 1 mmHg | Δ HR (50 μg/kg i.v.): -32 ± 6 beats/min | Δ RF (50 μg/kg i.v.): +38 ± 4% | Δ TV (50 μg/kg i.v.): +43 ± 4% | Δ dp/dt (50 μg/kg i.v.): +1498 ± 131 mmHg/sec | Δ AP DIAST (100 μg/kg i.v.): -28 ± 6 mmHg | Δ AP SYST (100 μg/kg i.v.): -22 ± 2 mmHg | Δ HR (100 μg/kg i.v.): -46 ± 7 beats/min | Δ RF (100 μg/kg i.v.): +68 ± 4% | Δ TV (100 μg/kg i.v.): +63 ± 5% | Δ dp/dt (100 μg/kg i.v.): +1712 ± 90 mmHg/sec | Δ AP DIAST (200 μg/kg i.v.): -29 ± 5 mmHg | Δ AP SYST (200 μg/kg i.v.): -23 ± 5 mmHg | Δ HR (200 μg/kg i.v.): -94 ± 6 beats/min | Δ RF (200 μg/kg i.v.): +69 ± 7% | Δ TV (200 μg/kg i.v.): +64 ± 7% | Δ dp/dt (200 μg/kg i.v.): +1797 ± 178 mmHg/sec | Δ AP DIAST (400 μg/kg i.v.): -26 ± 4 mmHg | Δ AP SYST (400 μg/kg i.v.): -25 ± 6 mmHg | Δ HR (400 μg/kg i.v.): -107 ± 4 beats/min | Δ RF (400 μg/kg i.v.): +76 ± 9% | Δ TV (400 μg/kg i.v.): +87 ± 9% | Δ dp/dt (400 μg/kg i.v.): +2568 ± 314 mmHg/sec | Δ AP DIAST (800 μg/kg i.v.): -26 ± 4 mmHg | Δ AP SYST (800 μg/kg i.v.): -27 ± 4 mmHg | Δ HR (800 μg/kg i.v.): -106 ± 11 beats/min | Δ RF (800 μg/kg i.v.): +70 ± 8% | Δ TV (800 μg/kg i.v.): +31 ± 3% | Δ dp/dt (800 μg/kg i.v.): +1926 ± 223 mmHg/sec | Δ AP DIAST (1600 μg/kg i.v.): -25 ± 4 mmHg | Δ AP SYST (1600 μg/kg i.v.): -22 ± 4 mmHg | Δ HR (1600 μg/kg i.v.): -85 ± 5 beats/min | Δ RF (1600 μg/kg i.v.): +133 ± 14% | Δ TV (1600 μg/kg i.v.): +55 ± 6% | Δ dp/dt (1600 μg/kg i.v.): +1724 ± 104 mmHg/sec | Δ AP DIAST (3200 μg/kg i.v.): -36 ± 4 mmHg | Δ AP SYST (3200 μg/kg i.v.): -22 ± 3 mmHg | Δ HR (3200 μg/kg i.v.): -98 ± 16 beats/min | Δ RF (3200 μg/kg i.v.): +85 ± 6% | Δ TV (3200 μg/kg i.v.): +40 ± 7% | Δ dp/dt (3200 μg/kg i.v.): +2996 ± 202 mmHg/sec | Δ AP DIAST (6400 μg/kg i.v.): -36 ± 2 mmHg | Δ AP SYST (6400 μg/kg i.v.): -18 ± 4 mmHg | Δ HR (6400 μg/kg i.v.): -42 ± 4 beats/min | Δ RF (6400 μg/kg i.v.): +37 ± 11% | Δ TV (6400 μg/kg i.v.): +29 ± 8% | Δ dp/dt (6400 μg/kg i.v.): +4494 ± 371 mmHg/sec | Δ AP DIAST (12800 μg/kg i.v.): -42 ± 3 mmHg | Δ AP SYST (12800 μg/kg i.v.): -22 ± 2.5 mmHg | Δ HR (12800 μg/kg i.v.): -15 ± 7 beats/min | Δ RF (12800 μg/kg i.v.): +23 ± 7% | Δ TV (12800 μg/kg i.v.): +25 ± 5% | Δ dp/dt (12800 μg/kg i.v.): +6420 ± 417 mmHg/sec | Δ AP DIAST (25600 μg/kg i.v.): -30 ± 9 mmHg | Δ AP SYST (25600 μg/kg i.v.): -19 ± 3 mmHg | Δ HR (25600 μg/kg i.v.): -21 ± 6 beats/min | Δ RF (25600 μg/kg i.v.): -34 ± 12% | Δ TV (25600 μg/kg i.v.): -57 ± 8% | Δ dp/dt (25600 μg/kg i.v.): +6471 ± 274 mmHg/sec | Δ AP DIAST (51200 μg/kg i.v.): -50 ± 7 mmHg | Δ AP SYST (51200 μg/kg i.v.): -80 ± 8 mmHg | Δ HR (51200 μg/kg i.v.): -298 ± 19 beats/min | Δ RF (51200 μg/kg i.v.): -100% | Δ TV (51200 μg/kg i.v.): -100% | Δ dp/dt (51200 μg/kg i.v.): -4708 ± 312 mmHg/sec | death of the tested animals at extremely high doses (25,600 and 51,200 ug/kg i.v., rat): primary respiratory depression (reduction of RF and TV) and a subsequent arterial hypotension. bradycardia and decrease in the cardiac inotropism (dp/dt), with death of the tested animals

N=C(N)N [guanidine]
alterations of RF, TV and HR (in words) (50-800 μg/kg i.v., rat): did not cause in the rats under test significative alterations of RF, TV and HR | dp/dt (in words) (50-800 μg/kg i.v., rat): a little reduction of dp/dt | hypotensive responses (in words) (50-800 μg/kg i.v., rat): slight and not significant hypotensive responses | the other parameters (in words) (6,400-1,2600 μg/kg i.v., rat): slight changes | RF and TV (in words) [1]: reduction of RF and TV | cardiac inotropism (dp/dt) (in words) [1]: a little increase in cardiac inotropism (dp/dt) | systemic arterial pressure (in words) [1]: biphasic responses of a slight entity (hypo-hypertension)

CC(C)=CCNC(=N)NCCCCN [guanido-III, prenylagmatine]
Δ AP DIAST (200 μg/kg i.v.): -2 ± 0.2 mmHg | Δ AP SYST (200 μg/kg i.v.): -2 ± 0.3 mmHg | Δ HR (200 μg/kg i.v.): 0 beats/min | Δ RF (200 μg/kg i.v.): +7 ± 4% | Δ TV (200 μg/kg i.v.): +9 ± 2% | Δ dp/dt (200 μg/kg i.v.): +214 ± 20 mmHg/sec | Δ AP DIAST (400 μg/kg i.v.): -2 ± 0.6 mmHg | Δ AP SYST (400 μg/kg i.v.): -3.5 ± 1.5 mmHg | Δ HR (400 μg/kg i.v.): 0 beats/min | Δ RF (400 μg/kg i.v.): +7 ± 3% | Δ TV (400 μg/kg i.v.): +17 ± 6% | Δ dp/dt (400 μg/kg i.v.): +321 ± 17 mmHg/sec | Δ AP DIAST (800 μg/kg i.v.): -13 ± 4 mmHg | Δ AP SYST (800 μg/kg i.v.): -11 ± 1 mmHg | Δ HR (800 μg/kg i.v.): -15 ± 3 beats/min | Δ RF (800 μg/kg i.v.): +10 ± 4% | Δ TV (800 μg/kg i.v.): +33 ± 9% | Δ dp/dt (800 μg/kg i.v.): +1356 ± 428 mmHg/sec | Δ AP DIAST (1600 μg/kg i.v.): -21 ± 4 mmHg | Δ AP SYST (1600 μg/kg i.v.): -13 ± 2 mmHg | Δ HR (1600 μg/kg i.v.): -23 ± 10 beats/min | Δ RF (1600 μg/kg i.v.): +18 ± 3% | Δ TV (1600 μg/kg i.v.): +21 ± 7% | Δ dp/dt (1600 μg/kg i.v.): +2157 ± 655 mmHg/sec | Δ AP DIAST (3200 μg/kg i.v.): -36 ± 6 mmHg | Δ AP SYST (3200 μg/kg i.v.): -36 ± 7 mmHg | Δ HR (3200 μg/kg i.v.): -26 ± 8 beats/min | Δ RF (3200 μg/kg i.v.): -42 ± 9% | Δ TV (3200 μg/kg i.v.): -73 ± 18% | Δ AP DIAST (6400 μg/kg i.v.): -85 ± 3 mmHg | Δ AP SYST (6400 μg/kg i.v.): -112 ± 3 mmHg | Δ HR (6400 μg/kg i.v.): -310 ± 25 beats/min | Δ RF (6400 μg/kg i.v.): -100% | Δ TV (6400 μg/kg i.v.): -100% | Δ dp/dt (6400 μg/kg i.v.): -5422 ± 514 mmHg/sec | cardiovascular and respiratory effects (in words) (rat): systolic and diastolic arterial hypotension (well evident starting from the dose of 800 μg/kg), bradycardia, increase of dp/dt (up to the dose of 3,200 μg/kg). increase of RF and TV (up to the dose of 1,600 μg/kg) | death of the tested animals (rat, in vivo, iv): caused death of the tested animals
